This passage reports MIC50, MIC90 and Activity results from ChEMBL document CHEMBL1143836, “Predictors of mortality in patients with bloodstream infections caused by extended-spectrum-beta-lactamase-producing Enterobacteriaceae: importance of inadequate initial antimicrobial treatment” (2007).

In brackets after ≈: the same amount, converted by molar mass. Some results are limits rather than exact numbers.

Assay [1] relates to Escherichia coli. The assay is described as follows: Antimicrobial activity against extended-spectrum-beta-lactamase producing Escherichia coli isolates. It counts as functional.
The subject of assay [2] is Klebsiella pneumoniae. The assay is described as follows: Antimicrobial activity against extended-spectrum-beta-lactamase producing Klebsiella pneumoniae isolates. It counts as functional.
For assay [3], the system named is Proteus mirabilis. The assay is described as follows: Antimicrobial activity against extended-spectrum-beta-lactamase producing Proteus mirabilis isolates. It counts as functional.
Assay [4] deals with Proteus mirabilis. The assay is described as follows: Antimicrobial activity against extended-spectrum-beta-lactamase producing Proteus mirabilis assessed as percent resistant isolates. It counts as functional.
The subject of assay [5] is Klebsiella pneumoniae. As to the kind of experiment: Antimicrobial activity against extended-spectrum-beta-lactamase producing Klebsiella pneumoniae assessed as percent susceptible isolates.
The test system of assay [6] is Escherichia coli. The assay is described as follows: Antimicrobial activity against extended-spectrum-beta-lactamase producing Escherichia coli assessed as percent resistant isolates. It counts as functional.

Regarding `C[C@H]1[C@H](NC(=O)/C(=N\OC(C)(C)C(=O)O)c2csc(N)n2)C(=O)N1S(=O)(=O)O` (stereo in doubt) [AZTREONAM], the MIC50 (commonly the lowest concentration that inhibits either 50% of growth or 50% of the strains tested, depending on the study) came to 256 µg/mL (≈ 588 µM) against Escherichia coli [1], 256 µg/mL (≈ 588 µM) in the assay on Klebsiella pneumoniae [2] and 0.25 µg/mL (≈ 0.574 µM) with Proteus mirabilis [3]. Moreover, the MIC90 – broadly, an inhibitory concentration at the 90% level, which refers to growth in some studies and to a panel of isolates in others – came to 256 µg/mL (≈ 588 µM) against Escherichia coli [1], 256 µg/mL (≈ 588 µM) in the assay on Klebsiella pneumoniae [2] and 1 µg/mL (≈ 2.3 µM) in the assay on Proteus mirabilis [3]. The Activity in the assay with Proteus mirabilis [4] and in the assay on Klebsiella pneumoniae [5] was 0% each time.

For the molecule `NCC[C@H](O)C(=O)N[C@@H]1C[C@H](N)[C@@H](O[C@H]2O[C@H](CN)[C@@H](O)[C@H](O)[C@H]2O)[C@H](O)[C@H]1O[C@H]1O[C@H](CO)[C@@H](O)[C@H](N)[C@H]1O` [AMIKACIN], the MIC50 in the assay with Escherichia coli [1], in the assay on Klebsiella pneumoniae [2] and against Proteus mirabilis [3] was 2 µg/mL (≈ 3.42 µM) each time. In addition, the MIC90 against Escherichia coli [1] is 8 µg/mL (≈ 13.7 µM); in the assay with Klebsiella pneumoniae [2] it was 16 µg/mL (≈ 27.3 µM); in the assay with Proteus mirabilis [3], 4 µg/mL (≈ 6.83 µM). For the same molecule, the results for the Activity in the assay with Escherichia coli [6], in the assay with Proteus mirabilis [4] and in the assay on Klebsiella pneumoniae [5] were 98.1%, 100% and 91.4%, respectively.

`CO/N=C(\C(=O)N[C@@H]1C(=O)N2C(C(=O)[O-])=C(C[N+]3(C)CCCC3)CS[C@H]12)c1csc(N)n1` [CEFEPIME]: the MIC50 amounted to 16 µg/mL (≈ 33.3 µM) against Escherichia coli [1], 1 µg/mL (≈ 2.08 µM) against Klebsiella pneumoniae [2] and 2 µg/mL (≈ 4.16 µM) with Proteus mirabilis [3]. In addition, the MIC90 against Escherichia coli [1] is 256 µg/mL (≈ 533 µM); against Klebsiella pneumoniae [2], 256 µg/mL (≈ 533 µM); against Proteus mirabilis [3], 32 µg/mL (≈ 66.6 µM). The Activity with Escherichia coli [6], in the assay on Proteus mirabilis [4] and in the assay with Klebsiella pneumoniae [5] was 0% throughout.

`CO/N=C(\C(=O)N[C@@H]1C(=O)N2C(C(=O)O)=C(COC(C)=O)CS[C@H]12)c1csc(N)n1` [CEFOTAXIME]: the MIC50 in the assay with Escherichia coli [1] was determined as 256 µg/mL (≈ 562 µM); against Klebsiella pneumoniae [2], 8 µg/mL (≈ 17.6 µM); with Proteus mirabilis [3], 16 µg/mL (≈ 35.1 µM). For the same molecule, the MIC90 against Escherichia coli [1], in the assay with Klebsiella pneumoniae [2] and in the assay with Proteus mirabilis [3] was 256 µg/mL (≈ 562 µM) throughout. In addition, the Activity with Escherichia coli [6], in the assay on Proteus mirabilis [4] and with Klebsiella pneumoniae [5] was 0% each time.

With `CO[C@@]1(NC(=O)Cc2cccs2)C(=O)N2C(C(=O)O)=C(COC(N)=O)CS[C@@H]21` [CEFOXITIN], the MIC50 in the assay on Escherichia coli [1], in the assay with Klebsiella pneumoniae [2] and against Proteus mirabilis [3] was 2 µg/mL (≈ 4.68 µM) each time. Also, the MIC90 in the assay with Escherichia coli [1] is not below 64 µg/mL; against Klebsiella pneumoniae [2], not below 64 µg/mL; against Proteus mirabilis [3] it was 8 µg/mL (≈ 18.7 µM). Besides, the Activity was 71.1% with Escherichia coli [6], 0% in the assay on Proteus mirabilis [4] and 74.1% in the assay with Klebsiella pneumoniae [5].

As for `CC(C)(O/N=C(\C(=O)N[C@@H]1C(=O)N2C(C(=O)[O-])=C(C[n+]3ccccc3)CS[C@H]12)c1csc(N)n1)C(=O)O` [CEFTAZIDIME], the MIC50 turned out to be 256 µg/mL (≈ 468 µM) against Escherichia coli [1], 256 µg/mL (≈ 468 µM) against Klebsiella pneumoniae [2] and 4 µg/mL (≈ 7.32 µM) in the assay with Proteus mirabilis [3]. Moreover, the MIC90 in the assay with Escherichia coli [1] came out at 256 µg/mL (≈ 468 µM); in the assay with Klebsiella pneumoniae [2], 256 µg/mL (≈ 468 µM); with Proteus mirabilis [3], 16 µg/mL (≈ 29.3 µM). Also, the Activity in the assay with Escherichia coli [6], in the assay on Proteus mirabilis [4] and in the assay on Klebsiella pneumoniae [5] was 0% in each case.

Turning to `O=C(O)c1cn(C2CC2)c2cc(N3CCNCC3)c(F)cc2c1=O` [CIPROFLOXACIN], the MIC50 in the assay with Escherichia coli [1] was not below 16 µg/mL; in the assay with Klebsiella pneumoniae [2] it was 2 µg/mL (≈ 6.04 µM); against Proteus mirabilis [3] it was not below 16 µg/mL. In addition, the MIC90 in the assay with Escherichia coli [1], in the assay with Klebsiella pneumoniae [2] and in the assay on Proteus mirabilis [3] was not below 16 µg/mL throughout. The Activity was 8.6% with Escherichia coli [6], 12.5% with Proteus mirabilis [4] and 46.5% with Klebsiella pneumoniae [5].

Turning to `C[C@@H](O)[C@H]1C(=O)N2C(C(=O)O)=C(SCCNC=N)C[C@H]12` [IMIPENEM ANHYDROUS], the Activity in the assay with Escherichia coli [6], with Proteus mirabilis [4] and in the assay with Klebsiella pneumoniae [5] was 100% in each case. For the same molecule, the results for the MIC50 with Klebsiella pneumoniae [2] and with Proteus mirabilis [3] were 0.25 µg/mL (≈ 0.835 µM) and 1 µg/mL (≈ 3.34 µM), respectively. In addition, the MIC90 came to 0.25 µg/mL (≈ 0.835 µM) in the assay with Klebsiella pneumoniae [2] and 4 µg/mL (≈ 13.4 µM) against Proteus mirabilis [3].

Regarding `C[C@H]1COc2c(N3CCN(C)CC3)c(F)cc3c(=O)c(C(=O)O)cn1c23.C[C@H]1COc2c(N3CCN(C)CC3)c(F)cc3c(=O)c(C(=O)O)cn1c23.O` [LEVOFLOXACIN], the MIC50 was not below 32 µg/mL against Escherichia coli [1], 2 µg/mL against Klebsiella pneumoniae [2] and not below 32 µg/mL in the assay with Proteus mirabilis [3]. Besides, the MIC90 with Escherichia coli [1], against Klebsiella pneumoniae [2] and against Proteus mirabilis [3] was not below 32 µg/mL in each case. The results for the Activity in the assay with Escherichia coli [6], in the assay with Proteus mirabilis [4] and in the assay with Klebsiella pneumoniae [5] were 8.6%, 12.5% and 48.2%, respectively.

Consider `C[C@@H](O)[C@H]1C(=O)N2C(C(=O)O)=C(S[C@@H]3CN[C@H](C(=O)N(C)C)C3)[C@H](C)[C@H]12` [MEROPENEM], for which the MIC50 against Escherichia coli [1], in the assay with Klebsiella pneumoniae [2] and in the assay on Proteus mirabilis [3] was 0.03 µg/mL (≈ 0.0782 µM) throughout. Further, the MIC90 with Escherichia coli [1], against Klebsiella pneumoniae [2] and with Proteus mirabilis [3] was 0.25 µg/mL (≈ 0.652 µM) in each case. Moreover, the Activity with Escherichia coli [6], with Proteus mirabilis [4] and in the assay on Klebsiella pneumoniae [5] was 100% throughout.
